Data reported in patent US20110104145A1, “METHOD FOR THE TREATMENT OR PROPHYLAXIS OF CHRONIC INFLAMMATORY DISEASES” (priority 2008, published 2011).

System: polymorphonuclear cells
Experiment: Human skin migration assay (ex vivo skin graft, IgA-coated beads)
Format: cell-based
Details: ex vivo mammary skin graft, beads injected intracutaneously, overnight at 37° C.
Method: A full thickness mammary skin graft (epidermis and dermis) was placed in an ex-vivo tissue incubation chamber (method adapted from Oosterling, S J et al. Ann Surg. 2008; 247(1):85-94). 5 μl of IgA- or BSA-coated beads (17.5 μg/μl) were injected intracutaneously via the dermis, followed by addition of PKH-67 labeled polymorphonuclear cells (4×10^6 cells/well) to the wells. Due to the short half-life of polymorphonuclear cells after isolation, cells were supplemented with IFN-γ (300 units/ml; Boehringer Ingelheim, Alkmaar, The Netherlands). Skin was incubated overnight at 37° C. Biopsies of the injected skin were taken and snap frozen. Sections of biopsies were analysed with bright field and fluorescence microscopy.

| Compound | migration of polymorphonuclear cells to IgA-coated beads in human skin |
| --- | --- |
| sFcαRI: soluble form of FcαRI: extracellular part (ecto domain) of FcαRI expressed in 293T cells | completely prevent migration |
| GRYQAQYRIGHYRFRYSD [PEO-50#8,9, EF loop peptide (CD89 75-92)] | completely prevent migration |
| SSMVGHEALPLAFTQKT [PEO-45#7,8, 17-mer stretch (amino acids 431-447) selected from the Fc region of IgA] | completely prevent migration |

System: polymorphonuclear cells
Experiment: Chemotaxis assay with supernatants of IgA-bead migration experiments
Format: cell-based, human
Details: mAb 100 μg/ml; U75302 10 μM in ethanol; 40 minutes at 37° C.
Method: B) Supernatant was collected after addition of IgA-beads, and migration of freshly isolated polymorphonuclear cells to collected supernatant was measured in the presence of anti-BLTR1 (LTB4 receptor), anti-IL-8 or an isotype mAb control. Additionally, either an LTB4 receptor antagonist (U75302 in ethanol) or ethanol alone was added. Migration to supernatant in the absence of inhibitors was set at 100%.
Chemotaxis assays were essentially performed as described (Frevert et al., J. Immunol. Methods 213, 41 (1998)), modified for use in a 48 well Neuroprobe blind well chemotaxis chamber (Gaithersburg, Md.). Briefly, bottom wells were filled with supernatants of migration experiments (25 μl), and covered with a 3 μm pore polycarbonate filter (Neuroprobe). Purified LTB4 (Sigma) or IL-8 (Peprotech, Rocky Hill, N.J.) were used as positive controls. Top wells were filled with 50 μl calcein AM-labeled polymorphonuclear cells (1×10^6/ml). After a 40 minutes incubation period at 37° C., cells that had migrated towards the lower compartments were quantified with a fluorimeter (485 excitation/520 emission filters). To inhibit IL-8 mediated migration, experiments were conducted in the presence of 100 μg/ml blocking anti-IL-8 mAb (BD Biosciences). LTB4-mediated migration was investigated by blocking LTB4 receptors with 100 μg/ml anti-BLTR1 mAb (BD Biosciences). […]

| Compound | chemotactic activity of supernatant of IgA-bead migration experiments |
| --- | --- |
| CCCCC/C=C\C[C@@H](O)/C=C/c1cccc(C[C@@H](O)CCCCO)n1 [receptor antagonist, U75302] | reduced |

System: binding between IgA and CD89
Experiment: Blocking assay: two-dimensional polymorphonuclear cell migration to IgA-coated beads
Format: cell-based, human
Details: PKH67-polymorphonuclear cells, blocker 1-100 μg/ml, 20' at 37° C., assay of example 4
Method: FIG. 6. IgA-induced migration can be reduced by interfering with IgA-CD89 interactions. Percentage inhibition of polymorphonuclear cell migration in the presence of 3 different anti-FcαRI mAb (white bars), 6 peptides that mimic either the IgA binding site on CD89 or the CD89 binding site on IgA (black bars) or a soluble variant of CD89 or FcαRI (sFcalphaRI, grey bar).
PKH67-polymorphonuclear cells (2.5×10^5 cells/well) were seeded in 96 wells flat bottom plates (Greiner), after which immunoglobulin-coated beads (10 μl/well) were added. For binding assays, cells were kept at 4° C. For migration assays, cells were incubated for 20′ 37° C., after which cell suspensions were collected and beads were washed 2 times with PBS to remove unbound PKH67-polymorphonuclear cells. Beads were incubated with a buffer containing 2.0 g/l hexadecyltrimethyl ammonium bromide, 1.0 g/l tween 20, 2.0 g/l BSA and 7.44 g/l EDTA in PBS to lyse bound PKH67-polymorphonuclear cells. Fluorescence was measured using 485 excitation and 520 emission filters (Fluostar Galaxy, BMG Labtechnologies, Offenburg, Germany).
The blocking potential of anti-FcαRI antibodies and/or sFcαRI and/or peptides that mimic either the IgA binding site on CD89 or the CD89 binding site on IgA was investigated using a 2-dimensional polymorphonuclear cells migration assay as detailed in example 4. For that purpose, PKH67-polymorphonuclear cells were incubated with different concentrations (ranging from 1-100 μg/ml in RPMI) of either anti-FcαRI blocking antibodies or with peptides mimicking the IgA binding site on CD89 for 20 minutes at 37° C. IgA-coated beads were incubated with different concentrations (ranging from 1-100 μg/ml in RPMI) of peptides mimicking the CD89 binding site on IgA for 20 minutes at 37° C. PKH67-polymorphonuclear cells (2.5×10^5 cells/well) that had not been incubated (as control) or PKH67-polymorphonuclear cells that had been incubated with blocking antibodies or peptides were seeded in 96 wells flat bottom plates (Greiner). Either non-incubated IgA-coated beads, or IgA-coated beads that had been incubated with peptides were added (10 μl/well). Cells were then incubated for 20′ at 37° C., after which cell suspensions were collected and beads were washed 2 times with PBS to remove unbound PKH67-polymorphonuclear cells. Beads were incubated with a buffer containing 2.0 g/l hexadecyltrimethyl ammonium bromide, 1.0 g/l Tween 20, 2.0 g/l BSA and 7.44 g/l EDTA in PBS to lyse bound PKH67-polymorphonuclear cells. Fluorescence was measured using 485 excitation and 520 emission filters (Fluostar Galaxy, BMG Labtechnologies, Offenburg, Germany) to determine the number of polymorphonuclear cells that had bound to IgA-coated beads. Percentage blocking was determined using the following equation: 100−(number of bound cells in blocking situation/number of bound cells without blocking×100) %.

| Compound | blocking of the interaction between IgA and CD89 |
| --- | --- |
| EDLLLGSEA [IgA CH2] | up to 23% |
| REIGRRLKFWNETDP [Fc alpha 113] | up to 19% |

Same assay, conditions: polymorphonuclear cells

| Compound | blocking of the IgA-CD89 interaction / reduction of polymorphonuclear cell migration to IgA-beads (in words) |
| --- | --- |
| LKFWNETDP | performed well |
| sFcαRI: soluble form of FcαRI: extracellular part (ecto domain) of FcαRI expressed in 293T cells | efficiently block the interaction |
| GRYQCQYRIGHYRFRYSD [Sym-060] | performed somewhat less but was still found useful |
| AQAIREAYL | performed well |
| SCMVGHEALPLAFTQCT [PEO-46#7,8] | provided good results |
| YRIGHYRFR | performed well |
